The values that follow come from PMC11941790, “Reactions of Plasmodium falciparum Type II NADH: Ubiquinone Oxidoreductase with Nonphysiological Quinoidal and Nitroaromatic Oxidants” (International Journal of Molecular Sciences, 2025).

The target in test [1] is T1, type II NADH:ubiquinone oxidoreductase (PfNDH2) (Plasmodium falciparum, UniProt Q8I302).
T1 construct: gene PF3D7_0915000; His-tagged PfNDH2 (pET45, E. coli)
T1 sequence (Q8I302 31-533): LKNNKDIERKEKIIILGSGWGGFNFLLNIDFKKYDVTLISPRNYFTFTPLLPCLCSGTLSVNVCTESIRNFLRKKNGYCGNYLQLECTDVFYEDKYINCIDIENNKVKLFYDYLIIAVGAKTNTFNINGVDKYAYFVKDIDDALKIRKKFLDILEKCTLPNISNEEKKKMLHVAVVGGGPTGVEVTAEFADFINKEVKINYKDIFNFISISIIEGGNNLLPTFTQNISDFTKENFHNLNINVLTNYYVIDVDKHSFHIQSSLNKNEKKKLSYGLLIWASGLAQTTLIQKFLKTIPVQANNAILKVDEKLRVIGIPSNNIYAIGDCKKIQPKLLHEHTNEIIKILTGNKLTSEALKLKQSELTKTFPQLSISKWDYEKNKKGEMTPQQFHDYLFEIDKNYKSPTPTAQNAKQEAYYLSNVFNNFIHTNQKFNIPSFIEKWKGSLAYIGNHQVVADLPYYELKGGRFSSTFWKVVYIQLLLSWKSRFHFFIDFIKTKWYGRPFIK
In words: steady-state kinetics, competitive inhibition vs NADH. Type of test: biochemical.

Test [2] has as its target T1, type II NADH:ubiquinone oxidoreductase (PfNDH2). In words: steady-state kinetics, competitive product inhibition vs NADH with naphthazarin as acceptor. Format: biochemical.

Molecule `Nc1ncnc2c1ncn2[C@@H]1O[C@H](COP(=O)(O)OP(=O)(O)OC[C@H]2OC(O)[C@H](O)[C@@H]2O)[C@@H](O)[C@H]1O` (some centres unmarked) [ADP-ribose] showed a Ki in test [1] of 2.5 ± 0.3 mM.

Consider `NC(=O)c1ccc[n+]([C@@H]2O[C@H](COP(=O)([O-])OP(=O)(O)OC[C@H]3O[C@@H](n4cnc5c(N)ncnc54)[C@H](O)[C@@H]3O)[C@@H](O)[C@H]2O)c1` [NAD^+], for which the Ki in test [2] was 3.7 ± 0.4 mM.
